{"source": "paper PMC4724238", "about": "(Biochemical and biophysical research communications, 2015)", "test_in_all_cases": "reduction to DABS-Met, […] min", "format_in_all_cases": "biochemical", "details_in_all_cases": "no activator", "key": {"[1]": {"biological_target": "T1, hMsrB3 (Homo sapiens, UniProt Q8IXL7)", "T1 sequence (Q8IXL7 1-192 limits assumed)": "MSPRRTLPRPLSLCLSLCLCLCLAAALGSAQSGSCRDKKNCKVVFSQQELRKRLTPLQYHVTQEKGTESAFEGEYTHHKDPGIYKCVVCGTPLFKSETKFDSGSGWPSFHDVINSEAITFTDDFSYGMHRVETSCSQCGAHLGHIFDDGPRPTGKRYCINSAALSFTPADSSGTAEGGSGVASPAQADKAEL"}, "[2]": {"biological_target": "hMsrB2 (Homo sapiens, UniProt Q9Y3D2)", "sequence (Q9Y3D2 whole entry)": "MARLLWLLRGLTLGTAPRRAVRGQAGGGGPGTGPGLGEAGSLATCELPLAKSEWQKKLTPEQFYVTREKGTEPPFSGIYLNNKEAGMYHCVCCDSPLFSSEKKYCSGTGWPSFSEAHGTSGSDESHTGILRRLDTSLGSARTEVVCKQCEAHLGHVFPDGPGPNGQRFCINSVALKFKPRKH"}, "[3]": {"biological_target": "T2, eMsrB (Escherichia coli, UniProt P0A746)", "T2 sequence (P0A746 2-137)": "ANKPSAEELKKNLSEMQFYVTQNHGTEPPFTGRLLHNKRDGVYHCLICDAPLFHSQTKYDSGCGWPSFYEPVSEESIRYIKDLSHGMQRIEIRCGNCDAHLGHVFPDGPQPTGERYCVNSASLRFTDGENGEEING"}, "[4]": {"biological_target": "T3, hMsrA (myristoylated) (Homo sapiens, UniProt Q9UJ68)", "T3 sequence (Q9UJ68 23-235)": "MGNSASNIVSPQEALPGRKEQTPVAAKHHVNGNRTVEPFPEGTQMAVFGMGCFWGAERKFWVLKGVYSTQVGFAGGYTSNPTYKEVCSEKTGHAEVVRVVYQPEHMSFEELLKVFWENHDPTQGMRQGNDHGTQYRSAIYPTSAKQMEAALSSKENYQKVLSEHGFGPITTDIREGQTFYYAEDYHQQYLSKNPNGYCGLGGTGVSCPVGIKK"}, "[5]": {"biological_target": "T4, eMsrA (Escherichia coli, UniProt P0A744)", "T4 sequence (P0A744 2-212)": "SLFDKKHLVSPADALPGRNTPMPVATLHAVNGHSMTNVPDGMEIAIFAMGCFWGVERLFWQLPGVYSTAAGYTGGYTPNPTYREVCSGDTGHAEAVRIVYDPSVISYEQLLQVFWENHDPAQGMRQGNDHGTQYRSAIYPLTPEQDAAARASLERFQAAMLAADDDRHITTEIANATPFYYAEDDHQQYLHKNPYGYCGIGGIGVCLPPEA"}, "[6]": {"biological_target": "T5, bMsrA (Bos taurus, UniProt P54149)", "T5 sequence (P54149 1-233 limits assumed)": "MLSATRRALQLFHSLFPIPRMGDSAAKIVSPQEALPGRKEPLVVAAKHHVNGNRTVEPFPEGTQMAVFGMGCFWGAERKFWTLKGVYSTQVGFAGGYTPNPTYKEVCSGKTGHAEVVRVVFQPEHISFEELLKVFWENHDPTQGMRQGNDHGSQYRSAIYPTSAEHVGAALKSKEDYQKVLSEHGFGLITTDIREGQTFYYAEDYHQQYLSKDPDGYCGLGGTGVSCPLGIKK"}, "[7]": {"biological_target": "T6, hMsrA (Homo sapiens, UniProt Q9UJ68)", "T6 sequence (Q9UJ68 23-235)": "T3 sequence (Q9UJ68 23-235)"}}, "data": [{"smiles": "CN(C)c1ccc(N=Nc2ccc(S(=O)(=O)N[C@@H](CC[S@@+](C)[O-])C(=O)O)cc2)cc1", "note": "[DABS-Met-R-(o)]", "values": [{"measurement": "reduction to DABS-Met, 30 min", "setting": "[1]", "result": "either DABS-Met-S-(o) or DABS-Met-R-(o), to measure the activity of MsrA and MsrB, respectively"}, {"measurement": "reduction to DABS-Met, 30 min", "setting": "[2]", "result": "either DABS-Met-S-(o) or DABS-Met-R-(o), to measure the activity of MsrA and MsrB, respectively"}, {"measurement": "reduction to DABS-Met, 30 min", "setting": "[3]", "result": "either DABS-Met-S-(o) or DABS-Met-R-(o), to measure the activity of MsrA and MsrB, respectively"}]}, {"smiles": "CN(C)c1ccc(N=Nc2ccc(S(=O)(=O)N[C@@H](CC[S@+](C)[O-])C(=O)O)cc2)cc1", "note": "[DABS-Met-S-(o)]", "values": [{"measurement": "reduction to DABS-Met, 30 min", "setting": "[4]", "result": "uses a synthetic substrate, either DABS-Met-S-(o) or DABS-Met-R-(o), to measure the activity of MsrA"}, {"measurement": "reduction to DABS-Met, 30 min", "setting": "[5]", "result": "uses a synthetic substrate, either DABS-Met-S-(o) or DABS-Met-R-(o), to measure the activity of MsrA"}, {"measurement": "reduction to DABS-Met, 30 min", "setting": "[6]", "result": "uses a synthetic substrate, either DABS-Met-S-(o) or DABS-Met-R-(o), to measure the activity of MsrA"}, {"measurement": "reduction to DABS-Met, 30 min", "setting": "[7]", "result": "uses a synthetic substrate, either DABS-Met-S-(o) or DABS-Met-R-(o), to measure the activity of MsrA"}]}]}
